Columns and labels:
[1] = system: RPE-Neo or RPE-MYC or RPE-MYC expressing an EGFP-Histone 2B fusion protein; experiment: Phenotypic screening assay (arrest in mitosis, change in DNA content, cell death; GE IN-Cell Analyzer 2000); type: cell-based; conditions: Homo sapiens, compounds 20 nM to 20 μM, 24, 48 or 72 hours
[2] = system: RPE-Neo or RPE-MYC or RPE-MYC expressing an EGFP-Histone 2B fusion protein; experiment: MTT assays of cellular proliferation; type: cell-based; conditions: Homo sapiens, min. effective conc., read-out: Proliferative arrest (<50%)
[3] = read-out: Min. Effective conc. for Polyploidy (≥10%)
[4] = min. effective conc., read-out: Cell Death (>30%)
[5] = min. effective conc., read-out: Mitotic Arrest (≥10%)

SMILES	minimal effective concentration [1, 3]	minimal effective concentration [1, 4]	minimal effective concentration [1, 5]	minimal effective concentration [2]
CNC(=O)C1=C(O)c2ccccc2N(Cc2ccc(F)c(C#N)c2)C(=O)C1 [Example 117, 1-(3-cyano-4-fluorobenzyl)-5-hydroxy-N-methyl-2-oxo-2,3-dihydro-1H-benzo[b]azepine-4-carboxamide]	30 to 1000 µM	30 to 1000 µM	30 to 1000 µM	30 to 1000 µM
CNC(=O)C1=C(O)c2ccccc2N(Cc2ccc(F)c(C(F)(F)F)c2)C(=O)C1 [Example 118, 1-(4-fluoro-3-(trifluoromethyl)benzyl)-5-hydroxy-N-methyl-2-oxo-2,3-dihydro-1H-benzo[b]azepine-4-carboxamide]	30 to 1000 µM	30 to 1000 µM	30 to 1000 µM	30 to 1000 µM
CNC(=O)C1=C(O)c2ccccc2N(Cc2ccc(C)c(Cl)c2)C(=O)C1 [Example 119, 1-(3-chloro-4-methylbenzyl)-5-hydroxy-N-methyl-2-oxo-2,3-dihydro-1H-benzo[b]azepine-4-carboxamide]	10 to 30 µM	10 to 30 µM	10 to 30 µM	10 to 30 µM
CNC(=O)C1=C(O)c2ccccc2N(Cc2ccc(C)c(Br)c2)C(=O)C1 [Example 120]	10 to 30 µM	10 to 30 µM	10 to 30 µM	10 to 30 µM
CNC(=O)C1=C(O)c2ccccc2N(Cc2cc(C)c(F)c(C)c2)C(=O)C1 [Example 121, 1-(4-fluoro-3,5-dimethylbenzyl)-5-hydroxy-N-methyl-2-oxo-2,3-dihydro-1H-benzo[b]azepine-4-carboxamide]	10 to 30 µM	10 to 30 µM	10 to 30 µM	10 to 30 µM
CNC(=O)C1=C(O)c2ccccc2N(Cc2cc(F)c(OC)c(F)c2)C(=O)C1 [Example 122, 1-(3,5-difluoro-4-methoxybenzyl)-5-hydroxy-N-methyl-2-oxo-2,3-dihydro-1H-benzo[b]azepine-4-carboxamide]	30 to 1000 µM	30 to 1000 µM	30 to 1000 µM	30 to 1000 µM
CNC(=O)C1=C(O)c2ccccc2N(Cc2ccc(OC)c(C(F)(F)F)c2)C(=O)C1 [Example 123, 5-hydroxy-1-(4-methoxy-3-(trifluoromethyl)benzyl)-N-methyl-2-oxo-2,3-dihydro-1H-benzo[b]azepine-4-carboxamide]	30 to 1000 µM	30 to 1000 µM	30 to 1000 µM	30 to 1000 µM
CNC(=O)C1=C(O)c2ccccc2N(Cc2ccc(Cl)c(F)c2)C(=O)C1 [Example 124, 1-(4-chloro-3-fluorobenzyl)-5-hydroxy-N-methyl-2-oxo-2,3-dihydro-1H-benzo[b]azepine-4-carboxamide]	1 to 10 µM	1 to 10 µM	1 to 10 µM	1 to 10 µM
CNC(=O)C1=C(O)c2ccccc2N(Cc2ccc(Br)c(F)c2)C(=O)C1 [Example 125, 1-(4-bromo-3-fluorobenzyl)-5-hydroxy-N-methyl-2-oxo-2,3-dihydro-1H-benzo[b]azepine-4-carboxamide]	1 to 10 µM	1 to 10 µM	1 to 10 µM	1 to 10 µM
CNC(=O)C1=C(O)c2ccc(OC)cc2N(Cc2ccc(C)c(F)c2)C(=O)C1 [Example 127, 1-(3-fluoro-4-methylbenzyl)-5-hydroxy-8-methoxy-N-methyl-2-oxo-2,3-dihydro-1H-benzo[b]azepine-4-carboxamide]	0.001 to 1 µM	0.001 to 1 µM	0.001 to 1 µM	0.001 to 1 µM
CCOc1ccc2c(c1)N(Cc1ccc(C)c(F)c1)C(=O)CC(C(=O)NC)=C2O [Example 128, 8-ethoxy-1-(3-fluoro-4-methylbenzyl)-5-hydroxy-N-methyl-2-oxo-2,3-dihydro-1H-benzo[b]azepine-4-carboxamide]	1 to 10 µM	1 to 10 µM	1 to 10 µM	1 to 10 µM
CNC(=O)C1=C(O)c2ccc(OC(F)F)cc2N(Cc2ccc(C)c(F)c2)C(=O)C1 [Example 129, 8-(difluoromethoxy)-1-(3-fluoro-4-methylbenzyl)-5-hydroxy-N-methyl-2-oxo-2,3-dihydro-1H-benzo[b]azepine-4-carboxamide]	0.001 to 1 µM	0.001 to 1 µM	0.001 to 1 µM	0.001 to 1 µM
CNC(=O)C1=C(O)c2ccc(Br)cc2N(Cc2ccc(F)c(C)c2)C(=O)C1 [Example 132, 8-bromo-1-(4-fluoro-3-methylbenzyl)-5-hydroxy-N-methyl-2-oxo-2,3-dihydro-1H-benzo[b]azepine-4-carboxamide]	1 to 10 µM	1 to 10 µM	1 to 10 µM	1 to 10 µM
CNC(=O)C1=C(O)c2ccc(OCc3ccc(OC)c(F)c3)cc2N(Cc2ccc(C)c(F)c2)C(=O)C1 [Example 133, 8-((3-fluoro-4-methoxybenzyl)oxy)-1-(3-fluoro-4-methylbenzyl)-5-hydroxy-N-methyl-2-oxo-2,3-dihydro-1H-benzo[b]azepine-4-carboxamide]	1 to 10 µM	1 to 10 µM	1 to 10 µM	1 to 10 µM
CNC(=O)C1=C(O)c2ccc(OCc3ccsc3)cc2N(Cc2ccc(C)c(F)c2)C(=O)C1 [Example 134, 1-(3-fluoro-4-methylbenzyl)-5-hydroxy-N-methyl-2-oxo-8-(thiophen-3-ylmethoxy)-2,3-dihydro-1H-benzo[b]azepine-4-carboxamide]	1 to 10 µM	1 to 10 µM	1 to 10 µM	1 to 10 µM
CNC(=O)C1=C(O)c2cc(F)ccc2N(Cc2ccc(C)c(F)c2)C(=O)C1 [Example 135, 7-fluoro-1-(3-fluoro-4-methylbenzyl)-5-hydroxy-N-methyl-2-oxo-2,3-dihydro-1H-benzo[b]azepine-4-carboxamide]	1 to 10 µM	1 to 10 µM	1 to 10 µM	1 to 10 µM
CNC(=O)C1=C(O)c2cc(C)ccc2N(Cc2ccc(C)c(F)c2)C(=O)C1 [Example 136, 1-(3-fluoro-4-methylbenzyl)-5-hydroxy-N,7-dimethyl-2-oxo-2,3-dihydro-1H-benzo[b]azepine-4-carboxamide]	1 to 10 µM	1 to 10 µM	1 to 10 µM	1 to 10 µM
CNC(=O)C1=C(O)c2cc(OC)ccc2N(Cc2ccc(C)c(F)c2)C(=O)C1 [Example 137, 1-(3-fluoro-4-methylbenzyl)-5-hydroxy-7-methoxy-N-methyl-2-oxo-2,3-dihydro-1H-benzo[b]azepine-4-carboxamide]	1 to 10 µM	1 to 10 µM	1 to 10 µM	1 to 10 µM

Source: patent US20240270695A1, “COMPOUNDS, COMPOSITIONS AND METHODS OF TREATING DISORDERS” (Chengdu Anticancer Bioscience LTD, priority 2021, published 2024)
